Reference: US12692509B2, “Methods for generating new genes in organism and use thereof” (Qingdao Kingagroot Chemical Compound Co., Ltd., priority 2019, dated 2026)

Assays:
[1] = test system: wild-type Jinjing 818; assay: Herbicide resistance test at seedling stage, germination on 1/2 MS medium with herbicide: wild-type control; type: in vivo, rice; conditions: 1.2 μM in 1/2 MS medium, 10 days of cultivation in light
Method: (§1) The herbicide resistance of the T1 generation of the QY2091 HPPD doubled strain was tested at the seedling stage. After the T1 generation seeds were subjected to surface disinfection, they germinated on ½ MS medium containing 1.2 μM Shuangzuocaotong, and cultivated at 28° C., 16 hours light/8 hours dark, in which wild-type Jinjing 818 was used as a control.

[2] = test system: QY2091 T0 generation HPPD gene doubling strain; assay: Herbicide resistance test, T0 generation, spray application: HPPD doubling strains; type: in vivo, rice; conditions: for phenotype of HPPD doubling event strains after application: 2, 4, 8 and 32 g a.i./mu
Method: (§2) The transformation seedlings of T0 generation identified as doubling event positive were transplanted into large plastic buckets in the greenhouse for expanding propagation to obtain seeds of T1 generation. After the seedlings began to tiller, the tillers were taken from vigorously growing strains, and planted in the same pots with the tillers of the wild-type control varieties at the same growth period. After the plant height reached about 20 cm, the herbicide resistance test was conducted. The herbicide used was Shuangzuocaotong (CAS No. 1622908-18-2) produced by our company, and its field dosage was usually 4 grams of active ingredients per mu (4 g a.i./mu). In this experiment, Shuangzuocaotong was applied at a dosage gradient of 2 g a.i./mu, 4 g a.i./mu, 8 g a.i./mu and 32 g a.i./muwith a walk-in spray tower.

[3] = test system: wild-type Jinjing 818; assay: Herbicide resistance test, T0 generation, spray application: wild-type control; type: in vivo, rice; conditions: 2, 4, 8 and 32 g a.i./mu
Method: as §2

[4] = test system: T1 generation of the QY2091 HPPD doubled strain; assay: Herbicide resistance test at seedling stage, germination on 1/2 MS medium with herbicide: T1 of HPPD doubled strain; type: in vivo, rice; conditions: 1.2 μM in 1/2 MS medium, 10 days; lines QY2091-7, 13, 20, 22
Method: as §1

[5] = test system: wild-type Huaidao No. 5; assay: Herbicide resistance test of T1 generation seedlings, spraying: wild-type control; type: in vivo, rice; conditions: 5 days after application
Method: (§3) The herbicide resistance test was performed on the T1 generation of the QY2234/H5-851 PPO1 inversion lines at seedling stage. The wild-type Huaidao No. 5 was used as a control, and planted simultaneously with the T1 generation seeds of the inversion lines. When the seedlings reached a plant height of 15 cm, 2081 was applied by spraying at four levels of 0.3, 0.6, 0.9 and 1.2 g a.i./mu. The culture conditions were 28° C., with 16 hours of light and 8 hours of darkness.

[6] = test system: wild-type Huaidao No. 5; assay: PPO inhibitory herbicide resistance test, T0 generation, spray application: wild-type control; type: in vivo, rice; conditions: 0.18, 0.4 and 0.6 g ai/mu
Description: (§4) Transformation seedlings of QY2234 T0 generation identified as inversion event-positive were transplanted into large plastic buckets in the greenhouse to grow seeds of T1 generation. There were a large number of positive seedlings, so some T0 seedlings and wild-type control lines with similar growth period and status were selected. When the plant height reached about 20 cm, the herbicide resistance test was directly carried out. The herbicide used was a high-efficiency PPO inhibitory herbicide [drawing 1] produced by the company (code 2081, see […] Patent Application for Invention No. 202010281666.4). In this experiment, the herbicide was applied at the gradients of three levels, namely 0.18, 0.4, and 0.6 g ai/mu, by a walk-in type spray tower.

[7] = test system: QY2234/H5-851 T1 seedlings; assay: Herbicide resistance test of T1 generation seedlings, spraying: PPO1 inversion line; type: in vivo, rice; conditions: 5 days after application
Method: as §3

[8] = test system: QY2234 T0 generation PPO1 inversion strain; assay: PPO inhibitory herbicide resistance test, T0 generation, spray application: PPO1 inversion lines; type: in vivo, rice
Description: as §4

[9] = test system: Plants containing the new EPSPS gene; assay: Herbicide bioassay on plants containing the new EPSPS gene; type: in vivo; conditions: rice plants from Agrobacterium-transformed calli
Description: These vectors were transferred into Agrobacterium for transforming calli of rice. Plants containing the new EPSPS gene were obtained.

[10] = T0 generation, versus wild type

Cc1nn(C)cc1C(=O)Oc1c(C(=O)c2ccc(C(F)(F)F)cc2S(C)(=O)=O)c(C)nn1C [Shuangzuocaotong]
phenotype of wild-type control rice seedlings [1]: almost all albino | phenotype of HPPD doubling event strains after application ([2]; 4 weeks after application): all continued to remain green and grew normally | phenotype of HPPD doubling event strains after application ([2]; 5-7 days after application): all remained normally green | tolerance of HPPD gene-doubled strains to the herbicide [2, 10]: significantly improved tolerance | resistance of plants to the HPPD inhibitory herbicide ([2]; T0 transformed seedlings, field dosage 4 g a.i./mu): up to 8 times the field dose | phenotype of wild-type rice seedlings after application ([3]; 4 weeks after application): close to death | phenotype of wild-type control rice seedlings after application ([3]; 5-7 days after application, spray tower): began to show albino | phenotype of green T1 seedlings of HPPD doubling lines [4]: continued to remain green and grew normally

COC(=O)[C@@H](C)O/N=C/c1cc(-n2c(=O)cc(C(F)(F)F)n(C)c2=O)c(F)cc1Cl [compound 2081]
phytotoxicity on wild-type control rice seedlings ([5]; 0.3 g a.i./mu): obvious phytotoxicity | phytotoxicity on wild-type control ([5]; 0.6 and 0.9 g ai/mu): substantially died off | phytotoxicity on wild-type control rice seedlings ([5]; 0.6 g a.i./mu): the plants died quickly | phytotoxicity on wild-type control plants ([5]; 1.2 g a.i./mu): all dead | phenotype of wild-type control rice seedlings after application ([6]; 3-5 days after application): began to wither from tip of leaf, necrotic spots appeared on the leaves, and the plants gradually withered | phenotype of wild-type rice seedlings after application ([6]; two weeks after application): died | phytotoxicity on QY2234/H5-851 T1 seedlings ([7]; 0.3 g a.i./mu): maintain normal growth | phytotoxicity on QY2234/H5-851 T1 seedlings ([7]; 0.6 and 0.9 g ai/mu): most T1 seedlings could keep green and continue to grow | phytotoxicity on QY2234/H5-851 T1 seedlings ([7]; 1.2 g a.i./mu): some of the T1 seedlings could keep green and continue to grow | phenotype of most lines of the PPO1 inversion event after application ([8]; 3-5 days after application, 0.18, 0.4 and 0.6 g ai/mu): maintained normal growth, the leaves had no obvious phytotoxicity | tolerance of PPO1 inversion lines to the herbicide [8, 10]: significantly improve the tolerance | phenotype of most inversion event strains after application ([8]; two weeks after application, 0.18, 0.4 and 0.6 g ai/mu): continued to remain green and grew normally

O=C(O)CNCP(=O)(O)O [glyphosate]
resistance of plants containing the new EPSPS gene to the herbicide [9]: obvious resistance
